# Active and inactive are the calls of the source. The rule behind the calls is not given here.
# Experiments:
# RAW264.7 [1] = test: Antiinflammatory activity in mouse RAW264.7 cells assessed as inhibition of LPS-induced NO production at 20 uM preincubated with compound for 2 hrs followed by LPS stimulation and measured after 24 hrs by Griess reagent based analysis; format: functional, cell-based; details: time 26.0 hrs
# RAW264.7 [2] = test: Cytotoxicity against mouse RAW264.7 cells assessed as reduction in cell viability at 40 uM incubated for 4 hrs by MTT assay; format: functional
# [3] = biological target: T1, Stimulator of interferon genes protein (Mus musculus) (UniProt Q3TBT3); test: Activation of STING signaling pathway in mouse RAW264.7 cells assessed as inhibition of LPS-induced p65 phosphorylation at 2.5 to 10 uM pretreated with compound for 2 hrs followed by LPS-induction and measured after 6 hrs by Western blot analysis; format: cell-based; details: filed as activator, dose 2.5-10 µM, time 8.0 hrs
# T1 sequence (whole entry): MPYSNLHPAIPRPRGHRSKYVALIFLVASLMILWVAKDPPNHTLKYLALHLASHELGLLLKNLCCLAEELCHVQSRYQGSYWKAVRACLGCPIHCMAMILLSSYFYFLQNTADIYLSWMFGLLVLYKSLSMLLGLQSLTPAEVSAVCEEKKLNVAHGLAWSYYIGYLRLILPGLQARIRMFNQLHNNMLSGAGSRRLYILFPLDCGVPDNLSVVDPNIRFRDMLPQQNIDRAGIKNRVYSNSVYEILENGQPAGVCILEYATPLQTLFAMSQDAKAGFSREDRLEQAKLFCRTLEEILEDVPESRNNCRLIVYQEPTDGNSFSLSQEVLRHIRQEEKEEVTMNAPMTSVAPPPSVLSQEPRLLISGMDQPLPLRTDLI
# Mus musculus [4] = test: Antiinflammatory activity against LPS-induced liver injury BALB/c mouse model assessed as reduction in hemorrhage severity at 1 to 9 mg/kg, ip pretreated with compound for 3 days followed by LPS-induction and measured after 12 hrs by H and E staining based analysis; format: functional, organism-based; details: dose 1-9 mg/kg, time 3.5 day
# [5] = biological target: T1, Stimulator of interferon genes protein (Mus musculus); test: Activation of STING signaling pathway in mouse RAW264.7 cells assessed as inhibition of LPS-induced TBK1 phosphorylation at 2.5 to 10 uM pretreated with compound for 2 hrs followed by LPS-induction and measured after 6 hrs by Western blot analysis; format: cell-based; details: filed as activator, dose 2.5-10 µM, time 8.0 hrs
# Mus musculus [6] = test: In-vivo inhibition of STING/IRF3/NF-kappaB activation in liver septic mouse model assessed as reduction in TBK phosphorylation at 1 to 9 mg/kg, ip pretreated with compound for 3 days followed by LPS-induction and measured after 2 hrs by Western blotting analysis; format: functional, organism-based; details: dose 1-9 mg/kg, time 74.0 hrs
# Mus musculus [7] = test: Antiinflammatory activity against LPS-induced liver injury BALB/c mouse model assessed as reduction in IFN-beta level in liver at 1 to 9 mg/kg, ip pretreated with compound for 3 days followed by LPS-induction and measured after 12 hrs; format: functional, organism-based; details: dose 1-9 mg/kg, time 3.5 day
# Mus musculus [8] = test: In-vivo inhibition of STING/IRF3/NF-kappaB activation in liver septic mouse model assessed as reduction in IRF3 phosphorylation at 1 to 9 mg/kg, ip pretreated with compound for 3 days followed by LPS-induction and measured after 2 hrs by Western blotting analysis; format: functional, organism-based; details: dose 1-9 mg/kg, time 74.0 hrs
# [9] = biological target: T1, Stimulator of interferon genes protein (Mus musculus); test: Activation of STING signaling pathway in mouse RAW264.7 cells assessed as inhibition of LPS-induced IRF3 phosphorylation at 2.5 to 10 uM pretreated with compound for 2 hrs followed by LPS-induction and measured after 6 hrs by Western blot analysis; format: cell-based; details: filed as activator, dose 2.5-10 µM, time 8.0 hrs
# Mus musculus [10] = test: In-vivo inhibition of STING/IRF3/NF-kappaB activation in liver septic mouse model assessed as reduction in STING level at 1 to 9 mg/kg, ip pretreated with compound for 3 days followed by LPS-induction and measured after 2 hrs by Western blotting analysis; format: functional, organism-based; details: dose 1-9 mg/kg, time 74.0 hrs
# Mus musculus [11] = test: Antiinflammatory activity against LPS-induced liver injury BALB/c mouse model assessed as reduction in ALT level in serum at 1 to 9 mg/kg, ip pretreated with compound for 3 days followed by LPS-induction and measured after 12 hrs; format: functional, organism-based; details: dose 1-9 mg/kg, time 3.5 day
# Mus musculus [12] = test: Antiinflammatory activity against LPS-induced liver injury BALB/c mouse model assessed as reduction in ALP level in serum at 1 to 9 mg/kg, ip pretreated with compound for 3 days followed by LPS-induction and measured after 12 hrs; format: functional, organism-based; details: dose 1-9 mg/kg, time 3.5 day
# Mus musculus [13] = test: Antiinflammatory activity against LPS-induced liver injury BALB/c mouse model assessed as reduction in AST level in serum at 1 to 9 mg/kg, ip pretreated with compound for 3 days followed by LPS-induction and measured after 12 hrs; format: functional, organism-based; details: dose 1-9 mg/kg, time 3.5 day
# Mus musculus [14] = test: Antiinflammatory activity against LPS-induced liver injury BALB/c mouse model assessed as reduction in TNF-alpha level in liver at 1 to 9 mg/kg, ip pretreated with compound for 3 days followed by LPS-induction and measured after 12 hrs; format: functional, organism-based; details: dose 1-9 mg/kg, time 3.5 day
# Mus musculus [15] = test: Antiinflammatory activity against LPS-induced liver injury BALB/c mouse model assessed as reduction in IL-6 level in liver at 1 to 9 mg/kg, ip pretreated with compound for 3 days followed by LPS-induction and measured after 12 hrs; format: functional, organism-based; details: dose 1-9 mg/kg, time 3.5 day
# Mus musculus [16] = test: In-vivo inhibition of STING/IRF3/NF-kappaB activation in liver septic mouse model assessed as reduction in IkappaB-alpha phosphorylation at 1 to 9 mg/kg, ip pretreated with compound for 3 days followed by LPS-induction and measured after 2 hrs by Western blotting analysis; format: functional, organism-based; details: dose 1-9 mg/kg, time 74.0 hrs
# [17] = biological target: T1, Stimulator of interferon genes protein (Mus musculus); test: Activation of STING signaling pathway in mouse RAW264.7 cells assessed as inhibition of LPS-induced IkappaB-alpha phosphorylation at 2.5 to 10 uM pretreated with compound for 2 hrs followed by LPS-induction and measured after 6 hrs by Western blot analysis; format: cell-based; details: filed as activator, dose 2.5-10 µM, time 8.0 hrs
# Mus musculus [18] = test: In-vivo inhibition of STING/IRF3/NF-kappaB activation in liver septic mouse model assessed as reduction in p65 phosphorylation at 1 to 9 mg/kg, ip pretreated with compound for 3 days followed by LPS-induction and measured after 2 hrs by Western blotting analysis; format: functional, organism-based; details: dose 1-9 mg/kg, time 74.0 hrs
# RAW264.7 [19] = test: Antiinflammatory activity in mouse RAW264.7 cells assessed as reduction in LPS-induced IL-6 level at 20 uM preincubated with compound for 2 hrs followed by LPS stimulation and measured after 6 hrs by ELISA analysis; format: functional, cell-based; details: time 8.0 hrs
# RAW264.7 [20] = test: Antiinflammatory activity in mouse RAW264.7 cells assessed as reduction in LPS-induced IFN-beta level at 20 uM preincubated with compound for 2 hrs followed by LPS stimulation and measured after 6 hrs by ELISA analysis; format: functional, cell-based; details: time 8.0 hrs
# RAW264.7 [21] = test: Antiinflammatory activity in mouse RAW264.7 cells assessed as inhibition of LPS-induced iNOS expression at 20 uM preincubated with compound for 2 hrs followed by LPS stimulation and measured after 6 hrs by ELISA analysis; format: functional, cell-based; details: time 8.0 hrs
# [22] = biological target: T1, Stimulator of interferon genes protein (Mus musculus); test: Binding affinity to STING in mouse RAW264.7 cells assessed as thermal stabilization at 49 to 55 degree C at 5 to 50 uM measured for 12 hrs by cellular thermal shift assay; format: cell-based; details: filed as modulator, dose 5-50 µM
# RAW264.7 [23] = test: Antiinflammatory activity in mouse RAW264.7 cells assessed as reduction in LPS-induced TNF-alpha level at 20 uM preincubated with compound for 2 hrs followed by LPS stimulation and measured after 6 hrs by ELISA analysis; format: functional, cell-based; details: time 8.0 hrs
smiles,measurement,setting,value
CC1(C)CC[C@]2(C(=O)OCc3ccccc3)CC[C@]3(C)C(=CC[C@@H]4[C@@]5(C)Cc6nccnc6[C@@](C)(COC(=O)CCC(=O)N6CCCCC6)[C@@H]5CC[C@]43C)[C@@H]2C1,Activity,RAW264.7 [1],Active
same,Activity,RAW264.7 [2],>90%
CCOC(=O)c1noc2c1C[C@@]1(C)[C@@H](CC[C@]3(C)[C@@H]1CC=C1[C@@H]4CC(C)(C)CC[C@]4(C(=O)OCc4ccccc4)CC[C@]13C)[C@]2(C)COC(=O)CCC(=O)O,Activity,RAW264.7 [2],>90%
CC1(C)CC[C@]2(C(=O)OCc3ccccc3)CC[C@]3(C)C(=CC[C@@H]4[C@@]5(C)Cc6nccnc6[C@@](C)(COC(=O)CCC(=O)n6nnc7ccccc76)[C@@H]5CC[C@]43C)[C@@H]2C1,Activity,RAW264.7 [2],<90%
CC1(C)CC[C@]2(C(=O)OCc3ccccc3)CC[C@]3(C)C(=CC[C@@H]4[C@@]5(C)Cc6nccnc6[C@@](C)(COC(=O)CCC(=O)N6CCCC6)[C@@H]5CC[C@]43C)[C@@H]2C1,Activity,RAW264.7 [2],<90%
O=C(Nc1ccc(I)cc1)c1ccc([N+](=O)[O-])o1,Activity,[3],Active
same,Activity,Mus musculus [4],Active
same,Activity,[5],Active
same,inhibition,Mus musculus [6],Active
same,Activity,Mus musculus [7],Active
same,inhibition,Mus musculus [8],Active
same,Activity,[9],Active
same,inhibition,Mus musculus [10],Active
same,Activity,Mus musculus [11],Active
same,Activity,Mus musculus [12],Active
same,Activity,Mus musculus [13],Active
same,Activity,Mus musculus [14],Active
same,Activity,Mus musculus [15],Active
same,inhibition,Mus musculus [16],Active
same,Activity,[17],Active
same,inhibition,Mus musculus [18],Active
CC(C)CC(NC(=O)[C@]12CCC(C)(C)C[C@H]1C1=CC[C@@H]3[C@@]4(C)Cc5nccnc5[C@@](C)(CO)[C@@H]4CC[C@@]3(C)[C@]1(C)CC2)C(=O)O (some centres not stated),Activity,RAW264.7 [2],>90%
CCOC(=O)c1noc2c1C[C@@]1(C)[C@@H](CC[C@]3(C)[C@@H]1CC=C1[C@@H]4CC(C)(C)CC[C@]4(C(=O)OCc4ccccc4)CC[C@]13C)[C@]2(C)CO,Activity,RAW264.7 [2],>90%
CC1(C)CC[C@]2(C(=O)NC(Cc3ccccc3)C(=O)O)CC[C@]3(C)C(=CC[C@@H]4[C@@]5(C)Cc6nccnc6[C@@](C)(CO)[C@@H]5CC[C@]43C)[C@@H]2C1 (some centres not stated),Activity,RAW264.7 [1],Active
same,Activity,RAW264.7 [2],>90%
CC1(C)CC[C@]2(C(=O)O)CC[C@]3(C)C(=CC[C@@H]4[C@@]5(C)Cc6nccnc6[C@@](C)(CO)[C@@H]5CC[C@]43C)[C@@H]2C1,Activity,[3],Active
same,Activity,Mus musculus [4],Active
same,Activity,RAW264.7 [19],Active
same,Activity,[5],Active
same,inhibition,Mus musculus [6],Active
same,Activity,Mus musculus [7],Active
same,inhibition,Mus musculus [8],Active
same,Activity,RAW264.7 [20],Active
same,Activity,[9],Active
same,inhibition,Mus musculus [10],Active
same,Activity,Mus musculus [11],Active
same,Activity,Mus musculus [12],Active
same,Activity,Mus musculus [13],Active
same,Activity,RAW264.7 [21],Active
same,Activity,RAW264.7 [1],Active
same,Activity,RAW264.7 [2],>90%
same,Activity,Mus musculus [14],Active
same,Activity,[22],Active
same,Activity,RAW264.7 [23],Active
same,Activity,Mus musculus [15],Active
same,inhibition,Mus musculus [16],Active
same,Activity,[17],Active
same,inhibition,Mus musculus [18],Active
CC1(C)CC[C@]2(C(=O)N3CCOCC3)CC[C@]3(C)C(=CC[C@@H]4[C@@]5(C)Cc6nccnc6[C@@](C)(CO)[C@@H]5CC[C@]43C)[C@@H]2C1,Activity,RAW264.7 [1],Active
same,Activity,RAW264.7 [2],>90%
CC1(C)CC[C@]2(C(=O)OCc3ccccc3)CC[C@]3(C)C(=CC[C@@H]4[C@@]5(C)Cc6nccnc6[C@@](C)(COC(=O)CCC(=O)N6CCOCC6)[C@@H]5CC[C@]43C)[C@@H]2C1,Activity,RAW264.7 [2],<90%
CC1(C)CC[C@]2(C(=O)OCc3ccccc3)CC[C@]3(C)C(=CC[C@@H]4[C@@]5(C)Cc6nccnc6[C@@](C)(COC(=O)CCC(=O)n6cccn6)[C@@H]5CC[C@]43C)[C@@H]2C1,Activity,RAW264.7 [2],<90%
CC1(C)CC[C@]2(C(=O)N3CCCC3C(=O)O)CC[C@]3(C)C(=CC[C@@H]4[C@@]5(C)Cc6nccnc6[C@@](C)(CO)[C@@H]5CC[C@]43C)[C@@H]2C1 (some centres not stated),Activity,RAW264.7 [1],Active
same,Activity,RAW264.7 [2],>90%
CN1CCN(C(=O)CCC(=O)OC[C@]2(C)c3nccnc3C[C@@]3(C)[C@H]2CC[C@]2(C)[C@@H]3CC=C3[C@@H]4CC(C)(C)CC[C@]4(C(=O)OCc4ccccc4)CC[C@]32C)CC1,Activity,RAW264.7 [2],<90%
CC1(C)CC[C@]2(C(=O)OCc3ccccc3)CC[C@]3(C)C(=CC[C@@H]4[C@@]5(C)Cc6nccnc6[C@@](C)(COC(=O)CCC(=O)Nc6ncn[nH]6)[C@@H]5CC[C@]43C)[C@@H]2C1,Activity,RAW264.7 [2],<90%
Cc1nc2c(s1)C[C@@]1(C)[C@@H](CC[C@]3(C)[C@@H]1CC=C1[C@@H]4CC(C)(C)CC[C@]4(C(=O)O)CC[C@]13C)[C@]2(C)CO,Activity,RAW264.7 [2],>90%

# — ChEMBL document CHEMBL5385855, “Design and synthesis of hederagenin derivatives modulating STING/NF-κB signaling for the relief of acute liver injury in septic mice” (2023)
